One assay addresses T1, farnesyl protein transferase (FPT), partially purified from rat brain (Rattus norvegicus, UniProt Q02293+Q04631).
T1 construct: were partially purified from rat brain by ammonium sulfate fractionation followed by Q-Sepharose
Put plainly: Inhibition of farnesyl protein transferase (transfer of [3H]farnesyl to Ras-CVLS). It is filed as biochemical. Conditions: (1.2) μM. The protocol:
1. In vitro enzyme assays: Inhibition of farnesyl protein transferase and geranylgeranyl protein transferase.
Human farnesyl protein transferase was also expressed in E. coli, using cDNA clones encoding both the α and β subunits. […] Human farnesyl protein transferase was partially-purified from the soluble protein fraction of E. coli as described above. […] Two forms of val^12-Ha-Ras protein were prepared as substrates for these enzymes, differing in their carboxy terminal sequence. One form terminated in cysteine-valine-leucine-serine (Ras-CVLS) the other in cystein-valine-leucine-leucine (Ras-CVLL). Ras-CVLS is a substrate for the farnesyl protein transferase while Ras-CVLL is a substrate for geranylgeranyl protein transferase I. The cDNAs encoding these proteins were constructed so that the proteins contain an amino-terminal extension of 6 histidine residues. Both proteins were expressed in Escherichia coli and purified using metal chelate affinity chromatography. The radiolabelled isoprenyl pyrophosphate substrates, [^3H]farnesyl pyrophosphate and [3H]geranylgeranyl pyrophosphate, were purchased from DuPont/New England Nuclear.
The reaction was allowed to proceed for 30 minutes at room temperature and then stopped with 0.5 ml of 4% sodium dodecyl sulfate (SDS) followed by 0.5 ml of cold 30% trichloracetic acid (TCA). Samples were allowed to sit on ice for 45 minutes and precipitated Ras protein was then collected on GF/C filter paper mats using a Brandel cell harvester. […] Percent inhibition was calculated relative to the DMSO vehicle control.
T1 sequence (Q02293 whole entry, one chain of several): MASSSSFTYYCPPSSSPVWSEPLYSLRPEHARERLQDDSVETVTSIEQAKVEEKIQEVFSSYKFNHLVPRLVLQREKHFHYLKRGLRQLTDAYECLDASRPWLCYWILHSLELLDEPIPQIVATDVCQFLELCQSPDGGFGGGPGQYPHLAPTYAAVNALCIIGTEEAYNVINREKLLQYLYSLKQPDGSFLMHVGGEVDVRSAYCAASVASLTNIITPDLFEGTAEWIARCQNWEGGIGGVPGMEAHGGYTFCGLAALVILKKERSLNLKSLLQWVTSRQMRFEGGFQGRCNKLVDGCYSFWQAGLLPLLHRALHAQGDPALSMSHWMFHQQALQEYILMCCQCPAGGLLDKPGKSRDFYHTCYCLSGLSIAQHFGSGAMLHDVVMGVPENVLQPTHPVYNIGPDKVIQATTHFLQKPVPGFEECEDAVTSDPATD
In the case of `O=C(Nc1cc[n+]([O-])cc1)N1CCC(=C2c3ccc(Cl)cc3CCc3cc(Cl)ccc32)CC1` [Example 422-A], the “FPT inhibition at the concentration in parentheses” value (shortened to “FPT inhibition at the concentration”) is given as 22 (1.2).

Staying with this assay, now noted: (1.3) μM.
Regarding `O=C(Cc1cc[n+]([O-])cc1)N1CCC(=C2c3ccc(Cl)cc3CCc3cc(F)cnc32)CC1` [Example 411-N], the “FPT inhibition at the concentration” value is given as 44(1.3).
The same measure, in the same setting: for `CN1CCC(CC(=O)N2CCC(=C3c4ccc(Cl)cc4CCc4cc(F)cnc43)CC2)CC1` [Example 411-R] the value was 29 (1.30).

Still in this assay, the particulars now being: (3.3) μM.
`O=C(Cc1cc[nH]c(=O)c1)N1CCC(=C2c3ccc(Cl)cc3CCc3cc(Br)cnc32)CC1` [Example 411-EE]: the “FPT inhibition at the concentration” value is given as 10 (3.3).

Staying with this assay, now noted: (4) μM.
For the compound `CC(C)(C(=O)N1CCC(=C2c3ccc(Cl)cc3CCc3cc(F)cnc32)CC1)c1cc[n+]([O-])cc1` [Example 411-O], the “FPT inhibition at the concentration” value was 39 (4).

The assay is the same for the next values; noted with them: (4.3) μM.
On to `O=C(Cc1ccc[n+]([O-])c1)N1CCC(=C2c3ccc(Cl)cc3CCc3cc(F)cnc32)CC1` [Example 411-Q], for which the “FPT inhibition at the concentration” value is on record as 33 (4.3).

Still in this assay, the particulars now being: FPT IC50, enzyme inhibition.
`O=C(Cc1ccc[n+]([O-])c1)N1CCN([C@@H]2c3ccc(Cl)cc3CCc3cccnc32)CC1` [Example 425-F] displayed an IC50 of 7 µM.

Still in this assay, the particulars now being: Ras-CVLS farnesylation, partially purified rat brain FPT; read-out: FPT IC50.
In the case of `CC(C)(C(=O)N1CCC(=C2c3ccc(Cl)cc3CCc3cc(Br)cnc32)CC1)c1ccncc1` [Example 361], the IC50 came out at 0.32 µM.
Consider `CCc1cc2c(cc1Cl)C=Cc1cccnc1C2C1CCN(C(=O)Cc2ccncc2)CC1` (stereo not shown) [Example 362], for which the IC50 worked out at 1.16 µM.
As for `N#CCC(=O)N1CCC(=C2c3ccc(Cl)cc3CCc3cc(Br)cnc32)CC1` [Example 400-A], the IC50 is 2.6 µM.
Turning to `CC1(C2CCN(C(=O)Cc3cc[n+]([O-])cc3)CC2)c2ccc(Cl)cc2CCc2cccnc21` (stereo not shown) [Example 401-A], the IC50 is 1.7 µM.
Still for that read-out and setting: the value for `CC(=O)Nc1cnc2c(c1)CCc1cc(Cl)ccc1C2=C1CCN(C(=O)Cc2ccncc2)CC1` [Example 403] was 1000 µM; that for `CS(=O)(=O)Nc1cnc2c(c1)CCc1cc(Cl)ccc1C2=C1CCN(C(=O)Cc2ccncc2)CC1` [Example 404] was 4.6 µM.
Same read-out and setting: for `CC1(C2CCN(C(=O)Cc3ccc[n+]([O-])c3)CC2)c2ccc(Cl)cc2CCc2cc(Br)cnc21` (stereo not shown) [Example 410-C] the value was 0.052 µM; for `CC1(C2=CCN(C(=O)Cc3ccncc3)CC2)c2ccc(Cl)cc2CCc2cccnc21` (stereo not shown) [Example 410-F], 2.2 µM; for `CN1CCN(CC(=O)N2CCC(=C3c4ccc(Cl)cc4CCc4cccnc43)CC2)CC1` [Example 410-H], 7 µM.
On the same count and under the same terms, the value for `CN1CCN(CC(=O)N2CCC(=C3c4ccc(Cl)cc4CCc4cc(Br)cnc43)CC2)CC1` [Example 410-J] was 1.9 µM; that for `O=C(Cc1ccncc1)N1CCC(C2c3ccc(Cl)cc3C([N+](=O)[O-])=Cc3cccnc32)CC1` (stereo not shown) [Example 410-L] was 2.9 µM.
With `CN1CCC(CC(=O)N2CCC(=C3c4ccc(Cl)cc4CCc4c3n(C)cc(Br)c4=O)CC2)CC1` [Example 410-M], the IC50 is roughly 12 µM.
Regarding `O=C(Cc1ccnc(-n2ccnc2)c1)N1CCC(=C2c3ccc(Cl)cc3CCc3cc(Br)cnc32)CC1` [Example 410-T], the IC50 worked out at 1.8 µM.
Still for that read-out and setting: for `CSc1cc(CC(=O)N2CCC(=C3c4ccc(Cl)cc4CCc4cc(Br)cnc43)CC2)ccn1` [Example 410-V] the value was 1.17 µM; for `CC1(C2CCN(C(=O)Cc3ccncc3)CC2)c2ccc(Cl)cc2CCc2cccnc21` (stereo not shown) [Example 410], 0.7 µM.
Regarding `O=C(Cn1cncn1)N1CCC(=C2c3ccc(Cl)cc3CCc3cc(Br)cnc32)CC1` [Example 412], the IC50 came out at 0.52 µM.
Still for that read-out and setting: for `CCN(CC)c1cnc2c(c1)CCc1cc(Cl)ccc1C2=C1CCN(C(=O)Cc2ccncc2)CC1` [Example 424-A] the value was 1000 µM; for `CCNc1cnc2c(c1)CCc1cc(Cl)ccc1C2=C1CCN(C(=O)Cc2ccncc2)CC1` [Example 424], 1.3 µM.

Still in this assay, the particulars now being: Table 22; no key shown; presumably % inhibition (concentration in μM).
Consider `CCN(CC)c1cnc2c(c1)CCc1cc(Cl)ccc1C2=C1CCN(C(=O)Cc2ccncc2)CC1` [Example 424-A], for which the “FPT IC50 (μM) column, second line printed as 'x (y)'” value is reported as 22 (4).

The assay is the same for the next values; noted with them: at 12 μM.
`O=C(c1c[nH]c2ccccc12)N1CCN(C2c3ccc(Cl)cc3CCc3cccnc32)CC1` (stereo not shown) [Example 368]: the FPT inhibition is on record as 14 @12 μM %.

The assay is the same for the next values; noted with them: enzyme inhibition; read-out: FPT IC50.
As to `CCCCNc1c(Br)cnc2c1CCc1cc(Cl)ccc1C2=C1CCN(C(=O)Cc2ccncc2)CC1` [Example 400-M], the IC50 worked out at 0.9 µM.
On to `N#Cc1cnc2c(c1)CCc1cc(Cl)ccc1C2=C1CCN(C(=O)Cc2ccncc2)CC1` [Example 406], for which the IC50 is 1.4 µM.
On the same count and under the same terms, the value for `O=C(Cc1ccncc1)N1CCC(=C2c3ccc(Cl)cc3CCc3ccc(O)nc32)CC1` [Example 411-C] was 6 µM.
Same read-out and setting: the value for `O=C(Cc1ccnc(OCc2ccccc2)c1)N1CCC(=C2c3ccc(Cl)cc3CCc3cc(Br)cnc32)CC1` [Example 411-DD] was 3.1 µM; that for `O=C(Cc1ccnc(N2CCCCC2)c1)N1CCC(=C2c3ccc(Cl)cc3CCc3cc(Br)cnc32)CC1` [Example 411-FF] was 1.8 µM.
On to `O=C(Cc1ccncc1)N1CCC(=C2c3cc([N+](=O)[O-])c(Cl)cc3CCc3cccnc32)CC1` [Example 411-F], for which the 50% inhibitory concentration (IC50) was found to be 1.28 µM.
The same measure, in the same setting: the value for `O=C(Cc1ccncc1)N1CCC(=C2c3ccc(Cl)cc3CCc3cc(Cl)ccc32)CC1` [Example 411-L] was 0.82 µM; that for `O=C(Cc1ccncc1)N1CCC(=C2c3ccc(Cl)cc3CCc3cc(F)cnc32)CC1` [Example 411-M] was 0.65 µM.
On the same count and under the same terms, the value for `O=C(Cc1cc[n+]([O-])cc1)N1CCC(=C2c3ccc(Cl)cc3CCc3cc(F)cnc32)CC1` [Example 411-N] was roughly 2 µM; that for `CC(C)(C(=O)N1CCC(=C2c3ccc(Cl)cc3CCc3cc(F)cnc32)CC1)c1cc[n+]([O-])cc1` [Example 411-O] was roughly 5 µM.
Still for that read-out and setting: for `O=C(Cc1ccc[n+]([O-])c1)N1CCC(=C2c3ccc(Cl)cc3CCc3cc(F)cnc32)CC1` [Example 411-Q] the value was roughly 10 µM.
On to `CN1CCC(CC(=O)N2CCC(=C3c4ccc(Cl)cc4CCc4cc(F)cnc43)CC2)CC1` [Example 411-R], for which the IC50 was roughly 4 µM.
Same read-out and setting: for `CN1CCCC(CC(=O)N2CCC(=C3c4ccc(Cl)cc4CCc4cc(F)cnc43)CC2)C1` (stereo not shown) [Example 411-S] the value was 2.1 µM.
Still for that read-out and setting: for `O=C(Cc1cccnc1)N1CCC(=C2c3ccc(Cl)cc3CCc3cc(Cl)cnc32)CC1` [Example 411-T] the value was 0.58 µM.
Same read-out and setting: the value for `O=C(Cc1ccc[n+]([O-])c1)N1CCC(=C2c3ccc(Cl)cc3CCc3cc(Cl)cnc32)CC1` [Example 411-U] was 1.12 µM.
Turning to `CN1CCCC(CC(=O)N2CCC(=C3c4ccc(Cl)cc4CCc4cc(Cl)cnc43)CC2)C1` (stereo not shown) [Example 411-V], the IC50 came to 0.27 µM.
`CN1CCC(CC(=O)N2CCC(=C3c4ccc(Cl)cc4CCc4cc(Cl)cnc43)CC2)CC1` [Example 411-X]: the IC50 was 0.45 µM.
The same measure, in the same setting: the value for `O=C(Cc1ccc[n+]([O-])c1)N1CCC(C2c3ccc(Cl)cc3CCc3cc(Br)cnc32)CC1` (stereo not shown) [Example 411-Z] was 1.5 µM; that for `O=C(Nc1ccccc1)N1CCC(=C2c3ccc(Cl)cc3CCc3c(Cl)ccnc32)CC1` [Example 414-A] was 1.9 µM.
The same measure, in the same setting: for `O=C(Cc1cc[n+]([O-])cc1)N1CCC(=C2c3ccc(Cl)cc3C=Cc3cccnc32)CC1` [Example 417-A] the value was 0.85 µM.
The same measure, in the same setting: for `CC(=O)ON=C1Cc2cccnc2C(=C2CCN(C(=O)Cc3ccncc3)CC2)c2ccc(Cl)cc21` [Example 420] the value was 0.23 µM; for `O=C(Nc1cc[n+]([O-])cc1)N1CCC(=C2c3ccc(Cl)cc3CCc3cc(Cl)ccc32)CC1` [Example 422-A], greater than 1.2 µM.
Regarding `O=C(Cc1cc[n+]([O-])cc1)N1CCC(=C2c3ccc(Cl)cc3CCc3cc(Cl)ccc32)CC1` [Example 422], the IC50 is 0.6 µM.
Same read-out and setting: the value for `CC(C)(C(=O)N1CCN(C2c3ccc(Cl)cc3CCc3cccnc32)CC1)c1cc[n+]([O-])cc1` (stereo not shown) [Example 425-A] was 2.2 µM; that for `CC(C)(C(=O)N1CCN(C2c3ccc(Cl)cc3CCc3cccnc32)CC1)c1ccc[n+]([O-])c1` (stereo not shown) [Example 425-C] was 1.26 µM.

For orientation: IC50 means the concentration that gives 50% inhibition.

For the origin of these results see patent US20030055065A1, “Tricyclic amide and urea compounds useful for inhibition of G-protein function and for treatment of proliferative diseases” (priority 1993, published 2003).
